# Where two headings read alike, the source gives them in different places.
# What was measured:
# PIKFYVE [1] = target: T1, PIKFYVE (Homo sapiens (Human), UniProt Q9Y2I7); test: KINOMEScan Kinase Assay, PIKFYVE binding; conditions: for inhibition at 0.05 µM: read-out: % Inhib. (50 nM); for % Inhib. (50 nM): 50 nM compound
# PIKFYVE [2] = target: T1, PIKFYVE; test: ADP-GLO Kinase Assay, PIKFYVE inhibitory activity; assay type: biochemical; conditions: substrate PI3P 10,000 nM
# Procedure: (§1) Briefly, 4× compound solution and 4×ATP solution are prepared with assay buffer (50 mM MOPS, 1 mM DTT, pH7.2). 4× Substrate solution and 4× kinase/Metal solution are prepared with MOPS based buffer containing individual kinase specific additives. Then, […] of 4× compound solution, 5 μL of 4× Substrate solution, 5 μL of 4×ATP solution, and 5 μL of 4× kinase/Metal solution are mixed and incubated in a well of polystyrene 384 well black microplate for 1 hour at room temperature. Next, 20 μL of ADP-Glo™ Reagent (Promega) is added to the well, and incubated for over 40 minutes. 40 μL of Kinase Detection Reagent (Promega) is added to the well, and incubated for over 40 minutes. The kinase reaction is evaluated by the endpoint luminescence of the well.
# For measurement of PIKFYVE activity, the substrate is PI3P at 10,000 nM concentration, using AG-182 as a positive control. The metal used is magnesium at 5 mM concentration.
# [3] = Cytotoxicity (CC50) in SARS-CoV-2 IFA; assay type: cell-based; conditions: African green monkey; SARS-CoV2 IFA Assay; Vero cells
# Procedure: SARS-CoV-2 IFA: In 384-well plates, Vero cells re seeded at an appropriate density and cultured at 37° C. and 5% CO2. Serially diluted (10 concentrations, in duplicates) test/reference compounds are added. Then the cells are infected with virus. The resulting cultures are incubated for an additional 1 day. The cells are then fixed and analyzed by immunofluorescence. EC50 and CC50 values are calculated with GraphPad Prism software.
# [4] = test system: influenza A strain California/07/09 (H1N1) pdm09 in MDCK cells; test: Influenza A IFA assay (CPE inhibition, neutral red); assay type: cell-based; conditions: Influenza A virus
# [5] = test system: SARS-CoV-2 spike pseudovirus in BHK21/hACE2 cells; test: microbe, parasite or virus in culture; assay type: cell-based; conditions: Severe acute respiratory syndrome coronavirus 2, BHK-21
# SARS-CoV-2 in Vero cells = test: SARS-CoV-2 immunofluorescence assay (IFA); assay type: cell-based; conditions: Severe acute respiratory syndrome coronavirus 2, SARS-CoV2 IFA Assay
# [6] = Cytotoxicity (CC50) in Influenza A assay; assay type: cell-based; conditions: dog; Influenza A IFA Assay; MDCK cells
# Procedure: Influenza A IFA: Test compounds are solubilized in DMSO to prepare 20 mg/mL stock solutions. Compounds are then serially diluted using eight half-log dilutions in test media so that the starting (high) test concentration is 100 μg/mL. Each dilution is added to 5 wells of a 96-well plate with 80-100% confluent MDCK cells. Three wells of each dilution are infected with virus (strain influenza A strain California/07/09 (H1N1) pdm09), and two wells remain uninfected as toxicity controls. As virus controls, six wells are infected but untreated, and as cell controls, six wells are uninfected and untreated. Each virus is prepared to achieve an MOI (multiplicity of infection) of 0.001. A positive control compound is tested in parallel. Plates are incubated at 37° C. under 5% CO2 atmosphere. On day 3 post-infection (once untreated virus control cells reached maximum cytopathic effect, CPE), plates are stained with neutral red dye for 2 hours. Supernatant dye is removed and the wells are rinsed with PBS. The incorporated dye is extracted using 50:50 Sorensen citrate buffer/ethanol for at least 30 minutes, and the optical density is read at […] on a spectrophotometer. […] The selectivity index (SI) is calculated as CC50 divided by EC50. […]
# in vitro = conditions: hamster
# [7] = test system: JJN3 (multiple myeloma) cells; test: Anti-proliferative assay (CellTiter-Glo), JJN3; assay type: cell-based; conditions: Homo sapiens, JJN-3, 144 h, six days incubation
# Procedure: (§2) Selected compounds are evaluated for their anti-proliferative activity against human cutaneous T-cell lymphoma and multiple myeloma cell lines.
# (§3) HuT-78 (T cell lymphoma) cells or JJN3 (multiple myeloma) cells are cultured in RPMI-1640 with 10% FBS and 1% penicillin/streptomycin. 45 μL suspensions of cells are transferred to the wells of 384-well plate for a density of 1,000 cells per well. The plates are incubated overnight at 37° C. under 5% CO2 atmosphere. Test compounds are dissolved in 100% DMSO at a 2 mM concentration, then diluted 20× in assay medium for to provide a 5% DMSO concentration and 100 μM compound concentration. 5 μL of this compound solution is added to the 45 μL cell suspension in the assay plate for a top plate concentration of 10 μM and 0.5% DMSO concentration. For positive controls, 10 μM APY0201 is added instead of the compound solution. After spinning at 1000 rpm for 1 minutes, the cell plate is placed in the incubator […] at 37° C. under 5% CO2 atmosphere. After incubation for six days, the cell plate is equilibrated to room temperature for 20 minutes. 25 μL of CellTiter-Glo (CTG) reagent (Promega Cat No. G7572) is added to each well, and the plate is shaken for 15 minutes at 300 rpm. Luminescence is read on an Envision plate reader.
# [8] = test system: PIK3CA, PIP4K2A, PIP4K2B, PIP4K1A, PIP4K1B, PIP4K1C, PIP5KL1; test: Comparative Kinase Assays (selectivity versus other lipid kinases); assay type: biochemical
# Procedure: as §1
# To determine whether the compounds are selective, the assay is repeated using appropriate substrates for different test enzymes:
# The compounds of Examples 1, 3 and 6 are tested against these enzymes: […]
# [9] = test system: HuT-78 (T cell lymphoma) cells; test: Anti-proliferative assay (CellTiter-Glo), HuT-78; assay type: cell-based; conditions: Homo sapiens, HuT78, 144 h, six days incubation
# Procedure: as §2, §3
# T1 sequence (Q9Y2I7 whole entry): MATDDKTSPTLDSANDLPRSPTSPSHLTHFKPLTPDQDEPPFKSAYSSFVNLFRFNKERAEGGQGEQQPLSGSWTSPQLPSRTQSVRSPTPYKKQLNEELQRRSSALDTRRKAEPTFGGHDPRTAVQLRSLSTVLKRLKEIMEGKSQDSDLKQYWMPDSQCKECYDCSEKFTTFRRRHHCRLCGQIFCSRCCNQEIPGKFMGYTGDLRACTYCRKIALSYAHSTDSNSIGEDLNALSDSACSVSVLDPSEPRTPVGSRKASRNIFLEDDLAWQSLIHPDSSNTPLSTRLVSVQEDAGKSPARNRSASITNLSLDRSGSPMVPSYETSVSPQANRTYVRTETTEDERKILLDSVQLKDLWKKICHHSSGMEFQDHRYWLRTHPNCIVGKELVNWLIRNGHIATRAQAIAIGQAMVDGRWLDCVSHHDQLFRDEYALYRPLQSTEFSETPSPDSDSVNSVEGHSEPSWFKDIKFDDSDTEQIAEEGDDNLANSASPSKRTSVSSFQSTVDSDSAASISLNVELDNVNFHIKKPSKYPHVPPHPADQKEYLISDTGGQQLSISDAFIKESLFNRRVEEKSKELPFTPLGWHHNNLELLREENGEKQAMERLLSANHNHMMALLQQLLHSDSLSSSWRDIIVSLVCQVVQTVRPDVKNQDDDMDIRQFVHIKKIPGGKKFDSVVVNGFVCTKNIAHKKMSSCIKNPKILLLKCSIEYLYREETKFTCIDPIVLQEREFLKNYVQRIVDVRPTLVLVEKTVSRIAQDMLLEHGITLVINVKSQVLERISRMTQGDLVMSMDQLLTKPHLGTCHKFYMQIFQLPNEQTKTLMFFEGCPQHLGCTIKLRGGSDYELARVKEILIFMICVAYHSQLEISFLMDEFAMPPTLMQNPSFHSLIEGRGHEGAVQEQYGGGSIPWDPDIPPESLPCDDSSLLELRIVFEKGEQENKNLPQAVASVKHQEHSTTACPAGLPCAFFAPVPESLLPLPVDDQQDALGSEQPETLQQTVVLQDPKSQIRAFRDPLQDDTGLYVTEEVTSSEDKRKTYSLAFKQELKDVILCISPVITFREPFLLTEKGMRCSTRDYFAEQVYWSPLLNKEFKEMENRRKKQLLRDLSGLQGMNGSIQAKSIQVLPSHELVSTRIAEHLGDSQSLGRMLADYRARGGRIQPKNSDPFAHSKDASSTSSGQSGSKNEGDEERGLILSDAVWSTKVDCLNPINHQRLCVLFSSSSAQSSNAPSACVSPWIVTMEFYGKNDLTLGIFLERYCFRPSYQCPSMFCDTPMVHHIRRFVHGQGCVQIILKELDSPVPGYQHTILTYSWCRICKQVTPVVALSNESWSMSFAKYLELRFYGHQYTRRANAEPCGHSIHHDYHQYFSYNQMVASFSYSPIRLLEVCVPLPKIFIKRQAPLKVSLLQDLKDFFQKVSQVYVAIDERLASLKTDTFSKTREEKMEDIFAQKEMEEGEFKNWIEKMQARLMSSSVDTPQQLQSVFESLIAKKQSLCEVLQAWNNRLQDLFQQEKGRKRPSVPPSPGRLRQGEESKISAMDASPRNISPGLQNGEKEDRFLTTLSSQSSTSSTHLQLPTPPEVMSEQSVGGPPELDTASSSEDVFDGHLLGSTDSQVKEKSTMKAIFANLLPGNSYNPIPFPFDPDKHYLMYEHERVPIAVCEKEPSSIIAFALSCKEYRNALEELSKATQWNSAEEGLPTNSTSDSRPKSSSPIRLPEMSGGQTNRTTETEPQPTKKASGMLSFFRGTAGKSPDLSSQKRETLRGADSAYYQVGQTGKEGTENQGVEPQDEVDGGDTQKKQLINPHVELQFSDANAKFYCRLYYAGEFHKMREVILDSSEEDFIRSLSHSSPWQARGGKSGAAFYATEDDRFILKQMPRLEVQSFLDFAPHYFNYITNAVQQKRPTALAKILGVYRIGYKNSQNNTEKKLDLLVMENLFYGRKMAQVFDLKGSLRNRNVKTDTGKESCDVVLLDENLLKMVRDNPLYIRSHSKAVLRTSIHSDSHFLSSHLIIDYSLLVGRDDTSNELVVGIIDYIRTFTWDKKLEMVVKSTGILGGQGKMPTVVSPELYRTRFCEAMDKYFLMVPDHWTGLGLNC
compound,measurement,setting,value
CC(C)(C)c1ccn(-c2cc(N3CCOCC3)n3nc(-c4ccncc4)cc3n2)n1 [Ex. 5],inhibition at 0.05 µM,PIKFYVE [1],< 50%
same,IC50,PIKFYVE [2],> 1000 nM
"FC(F)(F)Oc1cccc(-c2ccn(-c3cc(N4CCOCC4)n4nc(-c5ccncc5)cc4n3)n2)c1 [Ex. 22, 4-(2-(pyridin-4-yl)-5-(3-(3-(trifluoromethoxy)phenyl)-1H-pyrazol-1-yl)pyrazolo[1,5-a]pyrimidin-7-yl)morpholine]",inhibition at 0.05 µM,PIKFYVE [1],< 50%
COc1cccc(-c2ccn(-c3cc(N4CCO[C@@H](C)C4)n4nc(-c5ccncc5)cc4n3)n2)c1 [Ex. 12],% Inhib. (50 nM),PIKFYVE [1]; KINOMEScan Kinase Assay,+++ (>80%-100%)
Cc1cccc(-c2ccn(-c3cc(N4CCOCC4)n4nc(-c5ccncc5)cc4n3)n2)c1 [Ex. 17],Kd,PIKFYVE [1]; KINOMEScan Kinase Assay,< 1 nM
N#Cc1cccc(-c2ccn(-c3cc(N4CCOCC4)n4nc(-c5ccncc5)cc4n3)n2)c1 [Ex. 4],inhibition at 0.05 µM,PIKFYVE [1],50 to 80%
same,IC50,PIKFYVE [2],< 50 nM
Fc1ccc(-c2ccn(-c3cc(N4CCOCC4)n4nc(-c5ccncc5)cc4n3)n2)cc1 [Ex. 9],inhibition at 0.05 µM,PIKFYVE [1],50 to 80%
same,IC50,PIKFYVE [2],< 50 nM
COc1cccc(-c2ccn(-c3cc(N4CCOCC4)n4nc(-c5ccncc5)cc4n3)n2)c1 [Ex. 15],Kd,PIKFYVE [1]; KINOMEScan Kinase Assay,1 to 5 nM
Brc1cccc(-c2ccn(-c3cc(N4CCOCC4)n4nc(-c5ccncc5)cc4n3)n2)c1 [Ex. 3],inhibition at 0.05 µM,PIKFYVE [1],80 to 100%
same,CC50 at 1 day,[3],> 20000 nM
same,EC50,[4],5000 to 10000 nM
same,EC50,[5],< 10 nM
same,EC50,SARS-CoV-2 in Vero cells,1000 to 5000 nM
same,CC50,[6],> 20000 nM
same,CC50,in vitro,> 10000 nM
Fc1cccc(-c2ccn(-c3cc(N4CCOCC4)n4nc(-c5ccncc5)cc4n3)n2)c1 [Ex. 2],inhibition at 0.05 µM,PIKFYVE [1],50 to 80%
same,IC50,PIKFYVE [2],< 50 nM
"Cc1cccc(-c2ccn(-c3cc(N4CCOCC4)n4nc(C5=CCN(C(=O)OC(C)(C)C)CC5)cc4n3)n2)c1 [Ex. 26, tert-butyl4-(7-morpholino-5-(3-(m-tolyl)-1H-pyrazol-1-yl)pyrazolo[1,5-a]pyrimidin-2-yl)-3,6-dihydropyridine-1(2H)-carboxylate]",inhibition at 0.05 µM,PIKFYVE [1],80 to 100%
COc1cccc(-c2ccn(-c3cc(N4CCOCC4)n4nc(-c5ccncc5)cc4n3)n2)c1 [Ex. 6],Kd,PIKFYVE [1],< 1 nM
same,IC50,[7],< 100 nM
same,EC50,[5],< 10 nM
same,Fold Selectivity for PIKFYVE,[8],>200-fold
same,IC50,[9],100 to 1000 nM
same,IC50,PIKFYVE [2],< 50 nM
same,CC50,in vitro,5000 to 10000 nM
Fc1ccccc1-c1ccn(-c2cc(N3CCOCC3)n3nc(-c4ccncc4)cc3n2)n1 [Ex. 8],inhibition at 0.05 µM,PIKFYVE [1],50 to 80%
same,IC50,PIKFYVE [2],< 50 nM
COc1cccc(-c2ccn(-c3cc(N4CCOC[C@H]4C)n4nc(-c5ccncc5)cc4n3)n2)c1 [Ex. 14],Kd,PIKFYVE [1]; KINOMEScan Kinase Assay,5 to 10 nM
FC(F)(F)c1ccc(-c2ccn(-c3cc(N4CCOCC4)n4nc(-c5ccncc5)cc4n3)n2)cc1 [Ex. 10],inhibition at 0.05 µM,PIKFYVE [1],< 50%
same,IC50,PIKFYVE [2],> 1000 nM
"[O-][n+]1ccc(-c2cc3nc(-n4ccc(-c5cccc(Br)c5)n4)cc(N4CCOCC4)n3n2)cc1 [Ex. 18, 4-(5-(3-(3-bromophenyl)-1H-pyrazol-1-yl)-7-morpholinopyrazolo[1,5-a]pyrimidin-2-yl)pyridine 1-oxide]",Kd,PIKFYVE [1],< 1 nM
"CCOc1cccc(-c2ccn(-c3cc(N4CCOCC4)n4nc(-c5ccncc5)cc4n3)n2)c1 [Ex. 23, 4-(5-(3-(3-ethoxyphenyl)-1H-pyrazol-1-yl)-2-(pyridin-4-yl)pyrazolo[1,5-a]pyrimidin-7-yl)morpholine]",inhibition at 0.05 µM,PIKFYVE [1],< 50%
"4-(2-(pyridin-4-yl)-5-(3-(3-(trifluoromethyl)phenyl)-1H-pyrazol-1-yl)pyrazolo[1,5-a]pyrimidin-7-yl)morpholine [Ex. 21]",% Inhib. (50 nM),PIKFYVE [1]; KINOMEScan Kinase Assay,++ (>50%-80%)
"CCN(CC)CCCC(C)Nc1ccnc2cc(Cl)ccc12 (centres unmarked) [Chloroquine, chloroquine, reference compound]",EC50,[5],6000 nM
same,CC50,in vitro,35000 nM
"Cc1cccc(-c2ccn(-c3cc(N4CCOCC4)n4nc(Br)cc4n3)n2)c1 [Ex. 24, 4-(2-bromo-5-(3-(m-tolyl)-1H-pyrazol-1-yl)pyrazolo[1,5-a]pyrimidin-7-yl)morpholine]",Kd,PIKFYVE [1],1 to 5 nM
"C=Cc1cc2nc(-n3ccc(-c4cccc(C)c4)n3)cc(N3CCOCC3)n2n1 [Ex. 27, 4-(5-(3-(m-tolyl)-1H-pyrazol-1-yl)-2-vinylpyrazolo[1,5-a]pyrimidin-7-yl)morpholine]",inhibition at 0.05 µM,PIKFYVE [1],80 to 100%
"Cc1cccc(-c2ccn(-c3cc(N4CCOCC4)n4nc(C5=CCNCC5)cc4n3)n2)c1 [Ex. 28, 4-(2-(1,2,3,6-tetrahydropyridin-4-yl)-5-(3-(m-tolyl)-1H-pyrazol-1-yl)pyrazolo[1,5-a]pyrimidin-7-yl)morpholine]",Kd,PIKFYVE [1],1 to 5 nM
"Cc1cccc(/C=N/Nc2cc(N3CCOCC3)nc(OCCc3ccccn3)n2)c1 [Apilimod, reference compound]",EC50,[5],< 10 nM
same,CC50,in vitro,8000 nM
COc1cccc(-c2ccn(-c3cc(N4CCOC[C@@H]4C)n4nc(-c5ccncc5)cc4n3)n2)c1 [Ex. 13],% Inhib. (50 nM),PIKFYVE [1]; KINOMEScan Kinase Assay,+++ (>80%-100%)
"Cc1cccc(-c2ccn(-c3cc(N4CCOCC4)n4nc(C5=CC[N+](C)(C)CC5)cc4n3)n2)c1 [Ex. 29, 1,1-dimethyl-4-(7-morpholino-5-(3-(m-tolyl)-1H-pyrazol-1-yl)pyrazolo[1,5-a]pyrimidin-2-yl)-1,2,3,6-tetrahydropyridin-1-ium]",% Inhib. (50 nM),PIKFYVE [1]; KINOMEScan Kinase Assay,+++ (>80%-100%)
Cc1cccc(-c2ccn(-c3cc(N4CCOCC4)n4nc(-c5ccncc5)cc4n3)n2)c1 [Ex. 1],Kd,PIKFYVE [1],< 1 nM
same,CC50 at 1 day,[3],> 20000 nM
same,IC50,[7],< 100 nM
same,EC50,[4],1000 to 5000 nM
same,EC50,[5],< 10 nM
same,Fold Selectivity for PIKFYVE,[8],>100-fold
same,IC50,[9],100 to 1000 nM
same,IC50,PIKFYVE [2],< 50 nM
same,EC50,SARS-CoV-2 in Vero cells,100 to 1000 nM
same,CC50,[6],> 20000 nM
same,CC50,in vitro,5000 to 10000 nM
COc1cccc(-c2ccn(-c3cc(N4CCO[C@H](C)C4)n4nc(-c5ccncc5)cc4n3)n2)c1 [Ex. 11],Kd,PIKFYVE [1]; KINOMEScan Kinase Assay,5 to 10 nM
"Cc1cccc(-c2ccn(-c3cc(N4CCOCC4)n4nc(-c5ccnnc5)cc4n3)n2)c1 [Ex. 25, 4-(2-(pyridazin-4-yl)-5-(3-(m-tolyl)-1H-pyrazol-1-yl)pyrazolo[1,5-a]pyrimidin-7-yl)morpholine]",Kd,PIKFYVE [1],< 1 nM
Cc1ccccc1-c1ccn(-c2cc(N3CCOCC3)n3nc(-c4ccncc4)cc3n2)n1 [Ex. 7],inhibition at 0.05 µM,PIKFYVE [1],< 50%
same,IC50,PIKFYVE [2],50 to 1000 nM

# — patent publication US20240018151A1, “NOVEL INHIBITORS OF PIKFYVE AND METHODS USING SAME” (priority 2020, published 2024)
